Results taken from US20110230477A1, “COMPOUNDS, PHARMACEUTICAL COMPOSITION AND METHODS FOR USE IN TREATING METABOLIC DISORDERS” (Euroscreen S.A., priority 2008, published 2011).
“Also recorded” adds a separate entry of the source.

Legend:
[1] = target: T1, human GPR43 receptor (hGPR43) (Homo sapiens, UniProt O15552); experiment: GTPγS binding assay (SPA method); assay type: biochemical; details: membranes expressing hGPR43; assay performed in the presence of SCFA; read-out: EC50 (nM) in GTPγ35S assay
T1 construct: expressed in transfected cells
T1 sequence (O15552 1-330): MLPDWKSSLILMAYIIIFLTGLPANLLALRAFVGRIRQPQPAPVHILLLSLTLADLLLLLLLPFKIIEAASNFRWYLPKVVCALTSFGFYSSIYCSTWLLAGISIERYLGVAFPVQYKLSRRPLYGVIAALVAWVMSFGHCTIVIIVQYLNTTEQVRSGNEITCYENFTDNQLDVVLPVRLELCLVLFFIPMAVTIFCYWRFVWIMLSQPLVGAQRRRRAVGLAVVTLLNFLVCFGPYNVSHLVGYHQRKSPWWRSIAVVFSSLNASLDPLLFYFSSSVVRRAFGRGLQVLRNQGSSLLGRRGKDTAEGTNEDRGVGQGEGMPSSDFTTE
Method in brief: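 Membranes (5 μg) from hGPR43-expressing cells were incubated 30 min at room temperature with [35S]GTPγS, compounds (30 μM to 1 nM) and WGA SPA beads. Buffer was 20 mM HEPES pH 7.4, 100 mM NaCl, 10 μg/ml saponin, 30 mM MgCl2 and 10 μM GDP, with SCFA present. Bound label was read by scintillation counting.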

normal diet fed mice = experiment: In vivo assay of anti-lipolytic activity in rodent model (plasma FFA); details: orally administered, 50mg/kg, 15 minutes following the dosing, vs vehicle (FIG. 8)
Protocol: Male C57BL/6N wild-type are housed one per cage in a room maintained on a 12 h light/dark cycle under constant temperature (22-25° C.) with ad libitum access to food and water. The anti-lipolytic effects of the compounds of the invention are studied in awake mice. Animals are fasted overnight before experimental use. On the day of the experiment, animals are put in metabolic cages and left undisturbed to acclimate to the environment for 1-2 h. blood samples are taken at indicated time points from the intraorbital retrobulbar plexus. A 1% sodium citrate saline solution is used to flush the lines. A pre-treatment blood sample is obtained from each animal to determine baseline values for free fatty acids (FFA) and triglycerides (TG). Compounds of the invention are given via oral gavage, sc injection, iv injection or ip injection for each different series of experiments. Blood samples are collected into pre-cooled tubes pre-coated with heparin (200 μl blood, Li-heparin, Sarstedt) for determination triglycerides and glycerol and in tri-potassium EDTA added sodium fluoride (200 μl blood, K3-EDTA, 1.6 mg/mL+1% NaF, Sarstedt) for determination of plasma free fatty acids. The tubes are placed on wet ice pending processing. Blood samples will be centrifuged at 4000×g, at 4° C., 15 min the resulting plasma will be transferred into non-coated tubes and stored at −80° C. until analyses. […]

[2] = system: adipocytes isolated from normal rats; experiment: Lipolysis assay in isolated adipocytes (normal rats); assay type: cell-based; details: adipocytes isolated from normal rats (FIGS. 6 and 7)
Protocol: Isolated adipocytes were diluted to 5% in KRH-buffer and were pre-treated with compound of the invention (30 μM, 10 μM and 1 μM) for 30 min at 37° C./120 rpm. After the pre-treatment, Isoprenaline (1 μM) was added to the adipocytes followed by 30 min incubation at 37° C./150 rpm. The reactions were put on ice and the buffer was assayed spectrophotometrically for the production of […] from glycerol breakdown in reactions catalyzed by glycerol kinase and glycerol-3-phosphate dehydrogenase and/or Non Esterified Fatty Acid (NEFA). Each data point was investigated in triplicates in two independent experiments.

NCI-H716 cells = experiment: GLP-1 release from NCI-H716 cells; assay type: cell-based, Human; details: NCI-H716 cells (FIG. 9)
Protocol: Human intestinal cell line NCI-H716 has been described as cellular model to assess compounds mimicking nutrient-mediated effect such as glucagon-like peptide-1 (GLP-1) secretion.
NCl-H716 cells (ATCC, Manassas) are cultured in Dulbecco's modified eagle's medium (DMEM) containing 10% (v/v) bovine serum, 2 mM L-glutamine, 100 IU/ml penicillin and 100 μg/ml streptomycin in 75 ml flask. Cell adhesion and endocrine differentiation is initiated by growing cells in 96-well plate coated with matrigel in High Glucose DMEM containing 10% (v/v) bovine serum, 2 mM L-glutamine, 100 IU/ml penicillin and 100 μg/ml streptomycin for 2 days. On day 2, the medium is removed and cells are washed once with a pre-warmed wash buffer (Phosphate Buffered salt solution). The wash solution is removed and the SCFA or the compounds of the invention, or a combination of both, are added at the desired concentration in High Glucose DMEM containing 0.1% (v/v) bovine serum and incubated for 2 hours at 37° C. The supernatants are collected in a container. Using the cell-free supernatants, the GLP-1 amount is assessed using a GLP-1 specific ELISA assay kit according the manufacturer's recommendations (ALPCON).

## O=C(O)C[C@@H](CC1CCCC1)C(=O)N(c1nc(-c2ccccc2-c2ccc(N3CCCC3=O)nc2)cs1)C1CC1 [Compound 183, (R)-3-(cyclopentylmethyl)-4-(cyclopropyl(4-(2-(6-(2-oxopyrrolidin-1-yl)pyridin-3-yl)phenyl)thiazol-2-yl)amino)-4-oxobutanoic acid]
[1]
  EC50: 57 nM
Normal diet fed mice
  in vivo FFA baseline: inhibition; also recorded: inhibit
[2]
  isoprenaline-induced lipolysis: inhibit

## COc1ccc(-c2ccccc2-c2csc(N(C(=O)[C@@H](CC(=O)O)CC3CCCC3)C3CC3)n2)cn1 [Compound 169, (R)-3-(cyclopentylmethyl)-4-(cyclopropyl(4-(2-(6-methoxypyridin-3-yl)phenyl)thiazol-2-yl)amino)-4-oxobutanoic acid]
Normal diet fed mice
  in vivo FFA baseline: inhibition; also recorded: inhibit
NCI-H716 cells
  GLP-1 secretion: significantly increases
[2]
  isoprenaline-induced lipolysis: inhibit

## (3R)-4-((4-(2-chlorophenyl)thiazol-2-yl)(methyl)amino)-4-oxo-3-((tetrahydrofuran-2-yl)methyl)butanoic acid [Compound 155]
[1]
  EC50: 94 nM
[2]
  isoprenaline-induced lipolysis: inhibit

## COc1ccc(-c2ccccc2-c2csc(N(C)C(=O)[C@@H](CC(=O)O)CC3CCCC3)n2)cn1 [Compound 139, (R)-3-(cyclopentylmethyl)-4-((4-(2-(6-methoxypyridin-3-yl)phenyl)thiazol-2-yl)(methyl)amino)-4-oxobutanoic acid]
[1]
  EC50: 38 nM
[2]
  isoprenaline-induced lipolysis: inhibit

## CN(C(=O)[C@H]1CC=CC[C@H]1C(=O)O)c1nc(-c2ccccc2Cl)cs1 (relative stereo) [Compound 100, cis-6-((4-(2-chlorophenyl)thiazol-2-yl)(methyl)carbamoyl)cyclohex-3-enecarboxylic acid]
[1]
  EC50: 142 nM

## O=C(O)C[C@@H](Cc1ccccc1)C(=O)Nc1nc(-c2ccccc2)ns1 [Compound 11, (R)-3-benzyl-4-oxo-4-(3-phenyl-1,2,4-thiadiazol-5-ylamino)butanoic acid]
[1]
  EC50: 680 nM

## Cc1sc(NC(=O)[C@@H](CC(=O)O)Cc2ccccc2)c(C(N)=O)c1-c1ccc(Cl)cc1Cl [Compound 207, (3R)-3-benzyl-4-((3-carbamoyl-4-(2,4-dichlorophenyl)-5-methylthiophen-2-yl)amino)-4-oxobutanoic acid]
[1]
  EC50: 2910 nM

## CN(C(=O)[C@@H](CC(=O)O)Cc1ccccc1)c1nc(-c2ccccc2-c2ccc(OCc3ccccc3)nc2)cs1 [Compound 158, (R)-3-benzyl-4-((4-(2-(6-(benzyloxy)pyridin-3-yl)phenyl)thiazol-2-yl)(methyl)amino)-4-oxobutanoic acid]
[1]
  EC50: 49 nM

## CN(C(=O)[C@@H](CC(=O)O)Cc1ccccc1)c1nc(-c2ccccc2-c2ccc(Cl)cc2)cs1 [Compound 149, (R)-3-benzyl-4-((4-(4′-chloro-[1,1′-biphenyl]-2-yl)thiazol-2-yl)(methyl)amino)-4-oxobutanoic acid]
[1]
  EC50: 225 nM

## O=C(O)C[C@@H](Cc1cccc(F)c1)C(=O)Nc1nc(-c2ccccc2Cl)cs1 [Compound 93, (R)-4-(4-(2-chlorophenyl)thiazol-2-ylamino)-3-(3-fluorobenzyl)-4-oxobutanoic acid]
[1]
  EC50: 493 nM

## CC(C)[C@H](CC(=O)O)C(=O)N(C)c1nc(-c2ccccc2Cl)cs1 [Compound 94, (S)-3-((4-(2-chlorophenyl)thiazol-2-yl)(methyl)carbamoyl)-4-methylpentanoic acid]
[1]
  EC50: 200 nM

## CN(C(=O)[C@H]1CCCC[C@H]1C(=O)O)c1nc(-c2ccccc2Cl)cs1 (relative stereo) [Compound 101, cis-2-((4-(2-chlorophenyl)thiazol-2-yl)(methyl)carbamoyl)cyclohexanecarboxylic acid]
[1]
  EC50: 67 nM

## CN(C(=O)[C@@H](CC(=O)O)Cc1ccccc1)c1nc(-c2ccccc2-c2ccc(OC3CCOCC3)nc2)cs1 [Compound 141, (R)-3-benzyl-4-(methyl(4-(2-(6-((tetrahydro-2H-pyran-4-yl)oxy)pyridin-3-yl)phenyl)thiazol-2-yl)amino)-4-oxobutanoic acid]
[1]
  EC50: 996 nM

## O=C(O)C[C@@H](Cc1ccccc1)C(=O)N(CCOCc1ccccc1)c1nc(-c2ccccc2Cl)cs1 [Compound 201, (R)-3-benzyl-4-((2-(benzyloxy)ethyl)(4-(2-chlorophenyl)thiazol-2-yl)amino)-4-oxobutanoic acid]
[1]
  EC50: 1360 nM
